The text below walks through data of patent publication US20240209027A1, “PEPTIDE AND PEPTIDE-CONTAINING COMPOSITION” (PeptiAID Inc.,, priority 2021, published 2024).

Each structure is given as a SMILES string. Like-named read-outs stand apart in the source and are kept apart here. Starred links: 1 amine or outer side, 2 acyl side, 3 side chain; linkers in the order of their positions; H or OH if unused. Positions of bridges follow the written chain, without caps; N, C: chain ends. Non-standard residues stand in square brackets, D forms with d. Residues, ends and D or L forms follow the SMILES beside them. *: point of attachment. Ala(piperidin-4-yl) = O=C([C@H](CC1CCN([*:3])CC1)N[*:1])[*:2]; Phe(4-COOH) = N[C@@H](Cc1ccc(C(=O)O)cc1)C(=O)O; Phe(4-F) = N[C@@H](Cc1ccc(F)cc1)C(=O)O; C12 diacid = O=C(O)CCCCCCCCCCC(=O)*; NMeE = CN[C@@H](CCC(=O)O)C(=O)O; Cha = N[C@@H](CC1CCCCC1)C(=O)O; Cit = NC(=O)NCCC[C@H](N)C(=O)O; NMeNle = CCCC[C@H](NC)C(=O)O; PEG2 = NCCOCCOCCC(=O)O; Aib = CC(C)(N)C(=O)O

The subject of series [1] is SARS-CoV2 (USA WA1/2020 strain). The conditions noted are these: 72 h.
The target in series [2] is SARS-CoV-2-derived S protein, Wuhan strain (Severe acute respiratory syndrome coronavirus 2, UniProt P0DTC2). Format: cell-based.
Series [3] can be described thus: in vitro. Conditions: African green monkey.
The test system of series [4] is SARS-CoV-2 (JPN/TY/WK-521 strain). The class given is cell-based. Also noted: key: the case where the peptide was found to have anti-SARS-CoV-2 activity when added at 50 nM was designated as “2”; the case where no activity was found upon the addition at 50 nM but the activity was found at 1 μM was designated as “1”. The conditions noted are these: peptide added at 50 nM or 1 μM.

For series [5], the target named is spike protein of SARS-CoV-2 (GENE Accession No. YP 009724390) (Severe acute respiratory syndrome coronavirus 2, UniProt P0DTC2). As to the kind of experiment: Screening for target protein-binding peptides. An excerpt: First, the spike protein of SARS-CoV-2 (GENE Accession No. YP 009724390) was set to a target and the screening method described in International Publication WO2014/119600, International Publication WO2012/033154, or International Publication WO 2007/066627 was used to discover the target protein-binding peptides.

The subject of series [6] is SARS-CoV-2 mouse subculture strain QHmusX. Format: in vivo, BALB/c mice. Conditions: for lung histology (HE staining): day 10; for weight loss / respiratory symptoms: mouse, in vivo.
The subject of series [7] is SARS-CoV-2 (USA WA1/2020 strain). Format: in vivo, Golden Syrian hamsters. The conditions noted are these: for Chronic active inflammation (anterior lobe): Mild / Chronic active inflammation (anterior lobe): Moderate / Chronic active inflammation (anterior lobe): Severe / Chronic active inflammation (posterior lobe): Mild / Chronic active inflammation (posterior lobe): Minor / Chronic active inflammation (posterior lobe): Moderate / Chronic active inflammation (posterior lobe): Severe: cases; for Gross findings of the lung: Mottled fading (number of animals) / Gross findings of the lung: No change (number of animals): 6 animals.

Series [8] relates to SARS-CoV-2 Delta strain.
The test system of series [9] is SARS-CoV-2 Wuhan strain.

As to `C[C@H]1C(=O)N(C)[C@@H](Cc2ccccc2)C(=O)N[C@@H](CO)C(=O)N[C@@H](CC2CCCCC2)C(=O)N[C@@H](Cc2ccc(O)cc2)C(=O)N[C@@H](CO)C(=O)N[C@@H](Cc2ccc(O)cc2)C(=O)N[C@@H](Cc2ccc(O)cc2)C(=O)N[C@@H](CCCNC(=N)N)C(=O)N[C@@H](CCCNC(=N)N)C(=O)N[C@@H](CC2CCCCC2)C(=O)N[C@H](C(=O)N[C@H](CCC(=O)O)C(N)=O)CSCC(=O)N1C` [Peptide 5555_p000, MeA-MeF-S-Cha-Y-S-Y-Y-R-R-Cha-C], the IC50 in series [1] turned out to be 23.9 nM. The “Imax: % (at 500 nM)” value in [2] is recorded as 100%. Besides, in series [3], the CC50 at 72 h is above 1000 nM. The same molecule yielded an Anti-SARS-CoV-2 activity in series [4] of 2. For the same molecule, the “binding to the spike protein of SARS-CoV-2” value in [5] is reported as “binds to the spike protein of SARS-CoV-2”.

As for `CCCC[C@H]1C(=O)NC(C)(C)C(=O)N[C@@H](CC2CCCCC2)C(=O)N[C@@H](Cc2ccc(F)cc2)C(=O)NC(C)(C)C(=O)N[C@@H](Cc2ccc(O)cc2)C(=O)N[C@@H](Cc2ccc(O)cc2)C(=O)N[C@@H](Cc2ccc(C(=O)O)cc2)C(=O)N[C@@H](CC2CCNCC2)C(=O)N[C@@H](CC2CCCCC2)C(=O)N[C@H](C(=O)N[C@H](CCC(=O)O)C(N)=O)CSCC(=O)N(C)[C@@H](CCC(=O)O)C(=O)N1C` [Peptide 5555_p020] ({CH2CO}-[NMeE][NMeNle][Aib][Cha][Phe(4-F)][Aib]YY[Phe(4-COOH)][Ala(piperidin-4-yl)][Cha]C[dE]-NH2; thioether N-12), in series [6] (10 mg administration group), the “lung histology (HE staining)” value is recorded as “mild aggregation of lymphocytes (*) was observed around blood vessels near the bronchioles in some lung lobes”. Moreover, in [6], the “weight loss / respiratory symptoms” value is given as “no findings suggestive of weight loss or respiratory symptoms were observed”. The IC50 in series [1] is 2.3 nM. Also, in [2], the “Imax: % (at 500 nM)” value stood at 99%. In series [3], the CC50 at 72 h was above 1000 nM. For the same molecule, the Anti-SARS-CoV-2 activity in series [4] is given as 2.

`CCCC[C@H]1C(=O)NC(C)(C)C(=O)N[C@@H](CC2CCCCC2)C(=O)N[C@@H](Cc2ccc(F)cc2)C(=O)N[C@H](CC(=O)O)C(=O)N[C@@H](Cc2ccc(O)cc2)C(=O)N[C@@H](Cc2ccc(O)cc2)C(=O)N[C@@H](CCCNC(N)=O)C(=O)N[C@H](CCCCN)C(=O)N[C@@H](CC2CCCCC2)C(=O)N[C@H](C(=O)N[C@H](CCC(=O)O)C(=O)O)CSCC(=O)N(C)[C@@H](CCC(=O)O)C(=O)N1C` [Peptide 5555_p028] ({CH2CO}-[NMeE][NMeNle][Aib][Cha][Phe(4-F)][dD]YY[Cit][dK][Cha]C[dE]-OH; thioether N-12): in series [6] (30 mg administration group), the “lung histology (HE staining)” value is recorded as “mild aggregation of cells (*) was observed around blood vessels in almost all lung lobes”. Further, in series [6], the “weight loss / respiratory symptoms” value was “the rate of weight loss improved significantly (P<0.05) after the fourth day”. The same molecule gave an IC50 in series [1] of 3.5 nM. In series [2], the “Imax: % (at 500 nM)” value worked out at 91%. Further, the Anti-SARS-CoV-2 activity in series [4] came out at 2. The “Chronic active inflammation (anterior lobe): Mild” value in [7] (1 mg/kg (n = 6)) was determined as 5; in series [7] (5 mg/kg (n = 6)) it was 1; in series [7] (25 mg/kg (n = 6)), 2. For the same molecule, the “Chronic active inflammation (anterior lobe): Moderate” value was determined as 1 in series [7] (1 mg/kg (n = 6)), 5 in series [7] (5 mg/kg (n = 6)) and 4 in [7] (25 mg/kg (n = 6)). Also, the “Chronic active inflammation (anterior lobe): Severe” value in series [7] (1 mg/kg (n = 6)), in series [7] (5 mg/kg (n = 6)) and in series [7] (25 mg/kg (n = 6)) was 0 throughout. Besides, the “Chronic active inflammation (posterior lobe): Mild” value stood at 5 in [7] (1 mg/kg (n = 6)), 3 in series [7] (5 mg/kg (n = 6)) and 6 in series [7] (25 mg/kg (n = 6)). For the same molecule, the “Chronic active inflammation (posterior lobe): Minor” value in series [7] (1 mg/kg (n = 6)) was 0; in [7] (5 mg/kg (n = 6)), 2; in series [7] (5 mg/kg (n = 6), listed as 5555_028), “Minor lung inflammation was observed in the posterior lobe in two cases”; in series [7] (25 mg/kg (n = 6)) it was 0. Besides, the “Chronic active inflammation (posterior lobe): Moderate” value in [7] (1 mg/kg (n = 6)) is 1; in series [7] (5 mg/kg (n = 6)), 1; in series [7] (25 mg/kg (n = 6)), 0. The “Chronic active inflammation (posterior lobe): Severe” value in series [7] (1 mg/kg (n = 6)), in [7] (5 mg/kg (n = 6)) and in series [7] (25 mg/kg (n = 6)) was 0 each time. In addition, the “body weight, Mean” value in series [7] (1 mg/kg i.p., Day 0) was determined as 126.75; in series [7] (1 mg/kg i.p., Day 1), 124.03; in [7] (1 mg/kg i.p., Day 2), 122.3; in series [7] (1 mg/kg i.p., Day 3), 120.17; in series [7] (1 mg/kg i.p., Day 4), 120.33; in series [7] (1 mg/kg i.p., Day 5) it was 120.75. Also, the “body weight, Mean” value in [7] (1 mg/kg i.p., Day −6) worked out at 118.63; in [7] (5 mg/kg i.p., Day 0) it was 126.52; in series [7] (5 mg/kg i.p., Day 1), 122.87; in [7] (5 mg/kg i.p., Day 2) it was 120.87; in [7] (5 mg/kg i.p., Day 3), 120.42; in [7] (5 mg/kg i.p., Day 4), 118.52. For the same molecule, the “body weight, Mean” value in series [7] (5 mg/kg i.p., Day 5) was determined as 119.68; in series [7] (5 mg/kg i.p., Day −6) it was 118.67; in [7] (25 mg/kg i.p., Day 0) it was 129.63; in series [7] (25 mg/kg i.p., Day 1), 126.85; in [7] (25 mg/kg i.p., Day 2) it was 126.68; in series [7] (25 mg/kg i.p., Day 3), 126.22. Besides, the “body weight, Mean” value in [7] (25 mg/kg i.p., Day 4) is recorded as 124.45; in [7] (25 mg/kg i.p., Day 5), 121.62; in series [7] (25 mg/kg i.p., Day −6) it was 118.95. Besides, the “Gross findings of the lung: Mottled fading (number of animals)” value in series [7] (1 mg/kg) is reported as 6 number of animals; in series [7] (5 mg/kg) it was 6 number of animals; in series [7] (25 mg/kg) it was 4 number of animals. In addition, the “Gross findings of the lung: No change (number of animals)” value was 0 number of animals in series [7] (1 mg/kg); 0 number of animals in series [7] (5 mg/kg); 2 number of animals in series [7] (25 mg/kg); “no lung fading was observed in two cases” in series [7] (25 mg/kg, listed as 5555_028). Further, the “SARS-CoV-2 genome copy number in lung (RT-qPCR), Log10 of Geometric mean (copy number/gram)” value is on record as 8.15 copy number/gram in series [7] (1 mg/kg, Day 5); 7.72 copy number/gram in [7] (5 mg/kg, Day 5); 8.76 copy number/gram in [7] (25 mg/kg, Day 5). Further, the “SARS-CoV-2 genome copy number in lung vs solvent control” value in series [7] (5 mg/kg) is reported as “statistically significant decrease”; in [7] (25 mg/kg), “decreasing trend”. For the same molecule, the “severity of lung inflammation vs solvent control” value in series [7] (1, 5, or 25 mg/kg i.p.) is on record as “The severity of lung inflammation was reduced”. Moreover, the “weight loss vs solvent control” value in [7] (hamster, in vivo) was “the weight loss was suppressed to the same degree at any of the doses”.

In the case of `CCCC[C@H]1C(=O)NC(C)(C)C(=O)N[C@@H](CC2CCCCC2)C(=O)N[C@@H](Cc2ccc(F)cc2)C(=O)N[C@H](CC(=O)O)C(=O)N[C@@H](Cc2ccc(O)cc2)C(=O)N[C@@H](Cc2ccc(O)cc2)C(=O)N[C@@H](CCCNC(N)=O)C(=O)N[C@H](CCCCN)C(=O)N[C@@H](CC2CCCCC2)C(=O)N[C@H](C(=O)N[C@H](CCC(=O)O)C(=O)NCCOCCOCCC(=O)N[C@H](CCCCNC(=O)CCCCCCCCCCC(=O)O)C(N)=O)CSCC(=O)N(C)[C@@H](CCC(=O)O)C(=O)N1C` [Peptide 5555_p227] ({CH2CO}-[NMeE][NMeNle][Aib][Cha][Phe(4-F)][dD]YY[Cit][dK][Cha]C[dE][PEG2][dK](C12 diacid)-NH2; thioether N-12), the figures for the IC50 in series [8] and in series [9] were 8 nM and 11.5 nM, respectively.

As usually defined, the IC50 is the midpoint of a concentration-inhibition curve.
